The test system of series [1] is Human promyelocytic leukemia cells (HL-60). Description: Viability of HL-60 cells (propidium iodide, flow cytometry). Type of series: cell-based. Conditions: read-out: Toxicity of the complexes: IC50. The procedure: Determination of viability of HL-60 cells (Table 4)
HL-60 cells grown in RPMI 1640 medium supplemented with 10 % FCS, 1 % L-glutamine and 1% penicillin were centrifuged, the medium was replaced with RPMI 1640 medium (5 % FCS, 1 % L-glutamine, 1% penicillin) to obtain suspensions containing 10^6 cells per mL. Stock solutions of prodrugs of different concentrations (5 µL, solvent: DMF containing 2 % water and 1 % sodium ascorbate) were added to the cellular suspensions (500 µL) and incubated for specific periods of time. Four experiments were conducted for each concentration of the prodrug. At the end of the incubation period propidium iodide (PI, 1 µL, 1.5 mM in water) was added to label leaky cells and in 5 min the suspension of the cells was analyzed by using flow cytometry.
For orientation: Flow cytometry measures light scatter and fluorescence of single cells or particles in a stream.

Series [2] can be described thus: Release of iron ions from the prodrugs in the presence of hydrogen peroxide (2,2'-bipyridine absorbance). As to conditions: H2O2 (1 mM), 22°C, 100 min, MOPS buffer pH 7.5; relative to FeSO4 (100 µM). It is filed as physicochemical. The procedure:
Monitoring release of iron ions from the prodrugs A-E, Comparative Example and control compounds in the presence of hydrogen peroxide (Table 1):
Solution of a ferrocene complex (10 µL, 10 mM in DMF containing 2% water and 1% sodium ascorbate) was diluted with MOPS buffer (990 µL, 100 mM, pH 7.5). Such probes were incubated with H2O2 (1 mM) at 22°C for 100 min. Then the reaction was quenched by adding sodium dithionite (20 µL, 1 M in water) that converts Fe^3+ into Fe^2+. Finally, 2,2'-bipyridine solution (3 µL, 100 mM in DMF) was added to form dark red [Fe(2,2'-bipyridine)3]^2+ complex (λmax= 519 nm). FeSO4 sulfate (100 µM) was used as a positive control to determine the absorbance intensity when the ferrocene complexes were completely converted by H2O2 to free Fe^2+. […] The data are provided in Table 2 and were determined by using the following formulae: iron release efficacy = (A519nm(prodrug) - A519nm(buffer)) / (A519nm(FeSO4) - A519nm(buffer)), where A519nm(prodrug) is absorbance at 519 nm of a prodrug treated with H2O2 and 2,2'-bipyridine as described above, A519nm(FeSO4) is absorbance at 519 nm of FeSO4 treated in a similar way as a prodrug and A519nm(buffer) is absorbance at 519 nm of the buffer only treated in a similar way as a prodrug.

Series [3] can be described thus: Generation of ROS in vitro (DCFH fluorescence, cell-free). Type of series: biochemical. As to conditions: iron complex 100 µM, H2O2 (10 mM), glutathione (5 mM), pH 7.5, relative to FeSO4. The procedure:
Monitoring generation of ROS in the presence of the prodrugs A-E, Comparative Example and control compounds (Table 1):
2',7'-Dichlorfluorescin diacetate (DCFH-DA, 4.9 mg) was dissolved in DMF (100 µL) and mixed with aqueous NaOH (0.1 M, 900 µL). The resulting mixture was incubated for 30 min at 22°C in the dark to obtain the stock solution of 2',7'-dichlorfluorescin (DCFH, 10 mM). Next, the solution (1 mL) containing DCFH (10 µM), MOPS buffer (100 mM, pH 7.5), EDTA (10 mM), glutathione (5 mM) and H2O2 (10 mM) was prepared. Monitoring of fluorescence (λex= 501 nm, λem= 531 nm) of this solution was started. After 3 min, an iron complex (100 µM: ferrocene prodrugs A-E, Comparative Example, negative or positive controls 1 a, P) was added and the fluorescence monitoring was continued. Efficacy of ROS generation was then determined 17 and 37 min after the addition of the iron complex by using the following formulae: efficacy = (F(prodrug) - F0) / (F(FeSO4) - F0), where F(prodrug) is fluorescence of a mixture containing prodrug and treated as described above, F(FeSO4) is fluorescence of a mixture containing FeSO4; F0 is fluorescence of a mixture containing no iron complex.

A further series concerns HL60-cells. In words: Cell permeability of the prodrugs (boron/curcumin assay). Type of series: cell-based, Human. As to conditions: 100 µM, 1 h, boron relative to comparative example C.-E. The procedure: Assay for determination of cell Permeability of the prodrugs (Table 2) (according to the protocol described in J.Plant Nutr. Soil Sci. 1999,162,15-18) HL60-cells grown in RPMI 1640 medium supplemented with 10 % FCS, 1 % glutamine and 1% penicillin / streptomycin were centrifuged and the medium was replaced with RPMI 1640 medium (5 % FCS, 1 % L-glutamine, 1% penicillin) to obtain suspensions containing 10^6 cells per mL. Solutions of prodrugs (5 µL, solvent: DMF containing 2 % water and 1 % sodium ascorbate) were added to the suspensions (500 µL) and incubated for 1 h. The final concentration of the prodrugs in the suspensions was 100 µM. Then the cells were washed 3 times with PBS buffer (3 x 500 µL), treated with concentrated H2O2 solution (200 µL, 1 M) for 30 min and all volatiles were removed by lyophilization. Dry, lysed cells were washed with water (200 µL) and aqueous solution obtained was acidified with HCl (400 µL, 0.1 M). Then this solution was extracted with ethyl-1,3-hexandiol (100 µL, 10 % in CHCl3, v/v) and a portion of the organic phase obtained (40 µL) was mixed with H2SO4 / CH3CO2H (400 µL, 1/1, v/v). Curcumin solution in methylisobutylketone (500 µL, 2 mg in 1 mL of the solvent) was added and allowed to react for 24 h. The reaction was quenched by addition of water (1 mL). […] The value A(550 nm)-A(780 nm) was proportional to concentration of boron in the mixture. Amount of boron released from comparative example C.-E. was taken as a reference. All other values were determined relative to this reference. These values are compared in Table 2 with TLC retention factors, which are proportional to hydrophobicity of the prodrugs.

A short description of series [4]: TLC retention factor as measure of hydrophobicity. Type of series: physicochemical. Conditions: support - SiO2, eluent - hexane / ethyl acetate (3/1, v/v); proportional to hydrophobicity.
In the next series the test system is HL-60 cells. Description: Generation of ROS in cells (DCFH-DA, flow cytometry). It is filed as cell-based, Human. Conditions: 50 µM, 4 h. The procedure: Generation of ROS in HL-60 cells in the presence the prodrugs, comparative example C.-E. and controls (Table 3)
The probe of HL-60 cells was taken from the cultivation medium (RPMI 1640 supplemented with 10 % FCS, 1 % L-glutamine and 1% penicillin). The medium was replaced for PBS-buffer to obtain the cell suspension with 10^6 cells per mL. DCFH-DA solution (1 µL, 10 mM in DMSO) was added to the suspension (1 mL) and incubated in the dark chamber filled with CO2 (5 %) at 37 °C for 5 min. Then, the cells were washed with PBS and RPMI 1640 (5 % FCS, 1 % L-glutamine, 1% penicillin) medium and an iron complex (10 µL of stock solutions, solvent: DMF containing 2 % water and 1 % sodium ascorbate, final concentration of the complex - 50 µM) was added. After 4 h of the incubation the fluorescence of live cells (λex = 488 nm, λem = 530 nm) in the suspensions was determined by using the flow cytometer. Efficacy of ROS generation was determined using the following formulae: efficacy = (F(prodrug) - F0) / (F(FeSO4) - F0), where F(prodrug) is mean fluorescence intensity of cells incubated with a prodrug and treated as described above, F(FeSO4) is mean fluorescence intensity of cells incubated with FeSO4; F0 is mean fluorescence intensity of cells, which were not treated with any iron complex.

Series [5] is described as follows: Formation of ferrocenium ions in the presence of H2O2 (absorbance at 300 nm). It is filed as physicochemical. As to conditions: 100 µM complex in dimethylformamide, 9.8 mM H2O2 (Figure 1). The procedure: Figure 1: Iron complexes (100 µM) were dissolved in dimethylformamide and concentrated H2O2 solution (30 % in water, 1 µL) was added: final H2O2 concentration was 9.8 mM. Light absorbance at 300 nm was monitored as a function of time.
Monitoring formation of ferrocenium ions from the prodrugs A and B, as well as comparative example C.-E
Formation of ferrocenium ions from ferrocenes correlates with the increased light absorption in the region between 250 and 350 nm. In this spectral region […] have intense charge transfer transitions, whereas ferrocenes have only weak transitions (Y.S. Sohn, D.N. Hendrickson, H.B. Grey, J. Am. Chem. Soc., 1971, 93(15), 3603 - 3612).

A further series has as its system MCF-7 (breast). Conditions: cited from earlier work.
The next series has as its system HEY (ovary). Conditions: cited from earlier work.
The test system of another series is C480 (colon). As to conditions: cited from earlier work.
For a further series, the system named is 8226 (myeloma). Conditions: cited from earlier work.
For the next series, the system named is CIN8/27B (myeloma). Conditions: cited from earlier work.
Another series has as its system 8226-Dox 40 (myeloma). Conditions: cited from earlier work.
A further series concerns C8161 (melanoma). As to conditions: cited from earlier work.
The subject of another series is BE (ovary). As to conditions: cited from earlier work.
The subject of another series is MIRW5 (melanoma). As to conditions: cited from earlier work.
The subject of the next series is A375 (melanoma). Conditions: cited from earlier work.
Setting [6] is: 72 h incubation (value in brackets).

Here are results for five compounds from patent EP2497775A1, “Ferrocene-based compounds and their use as ROS regulating prodrugs” (Ruprecht-Karls-Universität Heidelberg, priority 2011, dated 2012).

In general, IC50 refers to the concentration at which inhibition is half-maximal.

Like-named read-outs stand apart in the source and are kept apart here.

“4-((N-(4-ethylbenzyl)-N-Ferrocenylaminocarbonyl)oxymethyl)-2-phenylboronic acid pinacol ester [Prodrug D]”: the IC50 in series [1] (listed as prodrug D) is 12 to 26 µM; in series [1], 14 µM. Besides, in [2], the “Efficacy of iron release in vitro” value was 0. Besides, the “Efficacy of ROS generation in vitro” value in series [3] (17 min incubation) amounted to 0.09; in series [3] (37 min incubation), 0.24. In the series with HL60-cells, the “Relative efficiency of cell loading” value is recorded as 2.3. Also, the “TLC-retention factor (Rf)” value in [4] amounted to 0.51. Besides, in the series with HL-60 cells, the “Efficacy of ROS release in cells” value turned out to be 0.03 ± 0.02.
With “4-((N-(4-methylbenzyl)-N-Ferrocenylaminocarbonyl)oxymethyl)-2-phenylboronic acid pinacol ester [Prodrug C]”, the IC50 in series [1] (listed as prodrug C) is 12 to 26 µM; in series [1], 12 ± 1 µM. The “Efficacy of iron release in vitro” value in [2] was determined as 0. Besides, the “Efficacy of ROS generation in vitro” value in [3] (17 min incubation) turned out to be 0.10; in series [3] (37 min incubation) it was 0.42. Besides, the “Relative efficiency of cell loading” value with HL60-cells was found to be 1.5. Also, the “TLC-retention factor (Rf)” value in [4] worked out at 0.50.
For the compound “4-((N-Ethyl-N-Ferrocenylaminocarbonyl)oxymethyl)-2-phenylboronic acid pinacol ester [Prodrug A]”, the IC50 was 12 to 26 µM in [1] (listed as prodrug A) and 26 ± 3 µM in series [1]. In series [2], the “Efficacy of iron release in vitro” value was determined as 0.72. In addition, in series [3] (17 min incubation), the “Efficacy of ROS generation in vitro” value was determined as 0.50. Besides, the “TLC-retention factor (Rf)” value in series [4] is listed as 0.47. The “Efficacy of ROS release in cells” value in the series on HL-60 cells amounted to 0.06 ± 0.03.
In the case of “4-((N-Ferrocenylaminocarbonyl)oxymethyl)-2-methylphenylboronic acid pinacol ester [Prodrug E]”, the IC50 in series [1] amounted to 39 ± 4 µM. Also, in series [2], the “Efficacy of iron release in vitro” value was found to be 0.74. The “formation of ferrocenium ions” value in series [5] is “rather decomposed with formation of iron ions”. In series [3] (17 min incubation), the “Efficacy of ROS generation in vitro” value came out at 0.52. For the same compound, in [4], the “TLC-retention factor (Rf)” value turned out to be 0.45. Besides, the “Efficacy of ROS release in cells” value with HL-60 cells worked out at 0.04 ± 0.02.
As for `N=C1NC(=O)N2CC12` (centres unmarked) [Imexon (Amplimexon), Imexon], the IC50 was 270 µM with MCF-7 (breast) (24 h incubation); 450 µM in the series on MCF-7 (breast) (setting [6]); 180 µM in the series on HEY (ovary) (24 h incubation); 270 µM in the series on HEY (ovary) (setting [6]); 270 µM in the series on C480 (colon) (24 h incubation); 135 µM in the series on C480 (colon) (setting [6]). Moreover, the IC50 is 40 µM in the series with 8226 (myeloma) (24 h incubation); 41 µM in the series on 8226 (myeloma) (setting [6]); 270 µM with CIN8/27B (myeloma) (24 h incubation); 90 µM with CIN8/27B (myeloma) (setting [6]); 40 µM in the series on 8226-Dox 40 (myeloma) (24 h incubation); 36 µM with 8226-Dox 40 (myeloma) (setting [6]). The IC50 was 72 µM in the series on C8161 (melanoma) (24 h incubation); 135 µM with C8161 (melanoma) (setting [6]); 450 µM in the series on BE (ovary) (24 h incubation); 270 µM with BE (ovary) (setting [6]); 315 µM with MIRW5 (melanoma) (24 h incubation); 63 µM with MIRW5 (melanoma) (setting [6]). Moreover, the IC50 in the series on A375 (melanoma) (24 h incubation) was 54 µM; in the series on A375 (melanoma) (setting [6]), 45 µM.
